Measured values taken from PMC10283052, “Intranasal delivery of mitochondrial protein humanin rescues cell death and promotes mitochondrial function in Parkinson's disease” (Theranostics, 2023).

How the values were obtained:
MPTP mouse model of PD = assay: MPTP mouse model of PD, intranasal HN; format: in vivo; conditions: intranasal HN 0.1 and 5 mg/kg
Experimental: (§1) A mouse model of PD was generated using the neurotoxin MPTP-HCl (Sigma-Aldrich, St. Louis, MO, USA), as previously described. Seven- to eight-week-old male C57BL/6J mice were injected with MPTP (20 mg/kg/day) for five consecutive days for the subacute delivery of MPTP. The mice in the control group received the same volume of phosphate buffer saline (PBS).
(§2) For intranasal HN treatment, the synthetic HN peptide was delivered according to a procedure reported by Capsoni et al. The synthetic HN peptide was diluted in ddH2O to a concentration of 0.1 and 5 mg/kg for mice (total volume of 40 μL) at 37 ℃ with mild stirring. The mice were held firmly in one hand in a supine position with their head at 90°. Synthetic HN was administered in the form of 5-μL drops over 20 min in alternating nostrils every 3 min. After administration, the heads of the mice were held in the same position to prevent loss of the applied solution from the nares.
To stain the mouse brain tissue samples, transcardial perfusion was performed using PBS and 4% paraformaldehyde in PBS. The brain and trigeminal ganglia were removed, post-fixed using 4% paraformaldehyde in PBS, and stored in a 30% sucrose solution at 4 ℃ until they sank. Coronal sections were prepared (thickness: 10 µm) using a sliding microtome. After blocking with 5% BSA, the samples were incubated with the appropriate primary antibody as mentioned above. After incubation with the primary antibodies, the tissue samples were incubated with Alexa Fluor 594- or 488-conjugated antibodies (Thermo Fisher Scientific) for immunofluorescence or with secondary biotinylated anti-rabbit IgG (H+L) (Vector Laboratories, Burlingame, CA, USA) for immunohistochemistry. […] Mitochondrial network morphology was further assessed using the FIJI/ImageJ software as described previously.
(§3) Mouse brain tissue samples and cells were homogenized in radioimmunoprecipitation assay (RIPA) buffer (Cell Signaling, Danvers, MA, USA) in the presence of a protease and phosphatase inhibitor cocktail (Thermo Fisher Scientific). […] The results were analyzed using the ImageJ densitometry system. […]

SH-SY5Y cells = assay: Mitochondrial membrane potential (TMRM) and mitochondrial ROS (MitoSOX); format: cell-based, human
Experimental: The SH-SY5Y cells were cultured in 96-well plates for 24 h before treatment. At the indicated time points, the cellular medium was removed, and the cells were washed with PBS. Mitochondrial ROS levels were measured using MitoSOX Red (Thermo Fisher Scientific) as described previously. The cells were counterstained using Hoechst 33342 (Sigma-Aldrich). Fluorescence intensity was quantified using a Synergy H1 multimode microplate reader (BioTek, Winooski, VT, USA) according to the manufacturer's protocol.
The cells were seeded in 96-well plates and treated as described above. To analyze the mitochondrial membrane potential, TMRM (Thermo Fisher Scientific) was used according to the manufacturer's instructions. The cells were counterstained using Hoechst 33342 (Sigma-Aldrich). Fluorescence intensity was assessed using a Synergy H1 multimode microplate reader or an LSR Fortessa cytometer at the Neuroscience Translational Research Solution Center.

JNK, p38 MAPK, AKT, ERK = assay: Signaling kinase activation in striatum of MPTP mice, western blot; format: in vivo, mouse; conditions: MPTP PD mice, intranasal HN 0.1 and 5 mg/kg
Experimental: as §1, §2
as §3, with “Scientific). The samples were sonicated on ice, and the supernatant was collected after centrifugation at 4°C at 10,000 g for 5 min.” for “Scientific).”

humanin (MAPRGFSCLLLLTSEIDLPVKRRA; Humanin; UniProt Q8IVG9 1-24, looked up) [HN, mitochondria-derived peptide encoded by the mitochondrial genome, synthesized by Fmoc-based SPPS at GL Biochem]
motor function, pole test (MPTP mouse model of PD; MPTP 20 mg/kg/day for 5 days): steady motor improvements in a dose-dependent manner | TH expression, dopaminergic neurons of substantia nigra pars compacta (MPTP mouse model of PD; dose-dependent, TH staining, stereology): significantly restored TH expression | TH protein in striatum lysates, western blot (MPTP mouse model of PD; three independent blots): confirmed the impact of intranasal delivery of HN on protecting TH^+ dopaminergic neurons | FCCP-induced mitochondrial depolarization (SH-SY5Y cells; HN pre-treatment 24 h, 20 μM, FCCP 5 μM, 15 min, flow cytometry): effective in restoring | mitochondrial membrane potential (TMRM) (SH-SY5Y cells; HN pre-treatment before MPP+, flow cytometry, normalized to Hoechst 33342): effectively inhibited reduction in mitochondrial potential | mitochondrial ROS production (MitoSOX) (SH-SY5Y cells; HN pre-treatment before MPP+, normalized to Hoechst 33342): effectively inhibited | activation of JNK and p38 MAPK in striatum (JNK, p38 MAPK, AKT, ERK): inhibited the activation of JNK and p38 MAPK | activation of AKT and ERK in brain tissue (JNK, p38 MAPK, AKT, ERK; dose-dependent): promoted the activation of AKT and ERK
